{"source": "patent US10392368B2", "about": "“Pyrazolo and triazolo bicyclic compounds as JAK kinase inhibitors” (THERAVANCE BIOPHARMA R&D IP, LLC, priority 2017, dated 2019)", "key": {"JAK1": {"target": "T1, JAK1 (Homo sapiens, UniProt P23458)", "T1 construct": "GST; purchased Life Technologies", "T1 sequence (P23458 whole entry)": "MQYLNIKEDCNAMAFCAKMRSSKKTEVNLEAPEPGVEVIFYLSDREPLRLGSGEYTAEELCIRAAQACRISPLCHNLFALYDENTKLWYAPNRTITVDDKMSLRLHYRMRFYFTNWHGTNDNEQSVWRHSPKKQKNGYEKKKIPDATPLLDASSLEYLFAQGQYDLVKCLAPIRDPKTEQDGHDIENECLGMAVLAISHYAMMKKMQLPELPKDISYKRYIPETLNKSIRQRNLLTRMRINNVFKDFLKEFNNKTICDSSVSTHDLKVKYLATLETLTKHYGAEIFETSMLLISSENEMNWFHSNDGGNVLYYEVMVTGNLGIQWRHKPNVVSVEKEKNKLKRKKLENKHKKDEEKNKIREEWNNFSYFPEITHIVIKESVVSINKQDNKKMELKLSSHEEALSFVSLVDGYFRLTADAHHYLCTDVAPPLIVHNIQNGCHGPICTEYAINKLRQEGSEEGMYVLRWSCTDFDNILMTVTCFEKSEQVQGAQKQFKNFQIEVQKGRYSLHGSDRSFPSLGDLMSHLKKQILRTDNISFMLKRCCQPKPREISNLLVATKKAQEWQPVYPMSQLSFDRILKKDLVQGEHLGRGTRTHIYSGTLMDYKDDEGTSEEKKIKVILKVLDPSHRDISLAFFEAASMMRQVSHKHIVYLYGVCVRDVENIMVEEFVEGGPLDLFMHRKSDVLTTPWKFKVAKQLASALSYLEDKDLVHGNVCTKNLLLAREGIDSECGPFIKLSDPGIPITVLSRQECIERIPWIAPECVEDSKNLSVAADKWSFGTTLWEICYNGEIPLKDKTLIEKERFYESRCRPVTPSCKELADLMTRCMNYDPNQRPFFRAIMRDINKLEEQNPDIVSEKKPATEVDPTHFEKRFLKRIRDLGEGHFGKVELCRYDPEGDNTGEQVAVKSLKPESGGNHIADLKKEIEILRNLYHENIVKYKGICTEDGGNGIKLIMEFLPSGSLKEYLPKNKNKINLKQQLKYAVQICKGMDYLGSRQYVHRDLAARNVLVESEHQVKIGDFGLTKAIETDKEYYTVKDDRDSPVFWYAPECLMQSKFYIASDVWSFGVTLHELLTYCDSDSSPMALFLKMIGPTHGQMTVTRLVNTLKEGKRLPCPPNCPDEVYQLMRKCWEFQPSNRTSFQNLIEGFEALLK", "experiment": "Biochemical JAK1 kinase assay (LanthaScreen)", "summary_of_the_method": "(§1)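 GST-JAK + GFP-STAT1 peptide + cpd, 1 h preinc RT; ATP start, 1% DMSO, 1 h RT; stop 10 mM EDTA + 2 nM Tb-anti-pSTAT1; 1 h; TR-FRET 520/495. % inhib vs DMSO/background → IC50 (4-PL) → pKi (Cheng-Prusoff).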"}, "JAK3": {"target": "T2, JAK3 (Homo sapiens, UniProt P52333)", "T2 sequence (P52333 1-1124)": "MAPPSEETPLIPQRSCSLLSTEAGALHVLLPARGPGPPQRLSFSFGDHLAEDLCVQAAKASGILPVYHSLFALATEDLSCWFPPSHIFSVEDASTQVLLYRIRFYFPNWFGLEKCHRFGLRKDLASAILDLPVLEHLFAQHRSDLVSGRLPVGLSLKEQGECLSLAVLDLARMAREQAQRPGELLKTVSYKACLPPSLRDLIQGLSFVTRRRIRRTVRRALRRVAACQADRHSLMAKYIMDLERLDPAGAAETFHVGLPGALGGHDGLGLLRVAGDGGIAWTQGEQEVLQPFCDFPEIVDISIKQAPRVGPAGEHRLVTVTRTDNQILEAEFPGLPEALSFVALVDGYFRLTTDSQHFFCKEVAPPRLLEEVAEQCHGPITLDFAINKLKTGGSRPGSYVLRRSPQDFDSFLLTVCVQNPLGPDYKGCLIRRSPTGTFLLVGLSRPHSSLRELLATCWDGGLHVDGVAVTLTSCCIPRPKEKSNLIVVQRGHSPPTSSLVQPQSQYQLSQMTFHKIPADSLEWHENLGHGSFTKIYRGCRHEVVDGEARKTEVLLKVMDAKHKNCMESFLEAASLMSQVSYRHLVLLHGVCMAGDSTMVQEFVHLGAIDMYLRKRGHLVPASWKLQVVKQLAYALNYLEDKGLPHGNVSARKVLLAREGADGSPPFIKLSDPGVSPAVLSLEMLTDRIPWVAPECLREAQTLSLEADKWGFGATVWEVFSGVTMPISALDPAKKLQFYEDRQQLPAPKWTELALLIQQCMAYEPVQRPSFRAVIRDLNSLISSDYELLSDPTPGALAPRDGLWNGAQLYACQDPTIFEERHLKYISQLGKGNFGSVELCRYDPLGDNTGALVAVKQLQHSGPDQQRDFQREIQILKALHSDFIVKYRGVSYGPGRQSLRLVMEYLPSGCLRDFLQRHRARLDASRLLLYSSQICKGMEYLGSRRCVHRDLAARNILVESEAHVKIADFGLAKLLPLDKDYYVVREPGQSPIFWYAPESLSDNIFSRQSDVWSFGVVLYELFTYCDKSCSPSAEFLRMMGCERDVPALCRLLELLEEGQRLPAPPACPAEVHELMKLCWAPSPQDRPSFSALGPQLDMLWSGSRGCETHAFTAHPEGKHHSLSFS", "experiment": "Biochemical JAK3 kinase assay (LanthaScreen)", "design": "GST; purchased Life Technologies", "settings": "for JAK3 (pKi)-JAK1 (pKi): selectivity JAK3 over JAK1, difference of pKi", "summary_of_the_method": "as §1"}, "Tyk2": {"target": "T3, Tyk2 (Homo sapiens, UniProt P29597)", "T3 construct": "GST; purchased Life Technologies", "T3 sequence (P29597 whole entry)": "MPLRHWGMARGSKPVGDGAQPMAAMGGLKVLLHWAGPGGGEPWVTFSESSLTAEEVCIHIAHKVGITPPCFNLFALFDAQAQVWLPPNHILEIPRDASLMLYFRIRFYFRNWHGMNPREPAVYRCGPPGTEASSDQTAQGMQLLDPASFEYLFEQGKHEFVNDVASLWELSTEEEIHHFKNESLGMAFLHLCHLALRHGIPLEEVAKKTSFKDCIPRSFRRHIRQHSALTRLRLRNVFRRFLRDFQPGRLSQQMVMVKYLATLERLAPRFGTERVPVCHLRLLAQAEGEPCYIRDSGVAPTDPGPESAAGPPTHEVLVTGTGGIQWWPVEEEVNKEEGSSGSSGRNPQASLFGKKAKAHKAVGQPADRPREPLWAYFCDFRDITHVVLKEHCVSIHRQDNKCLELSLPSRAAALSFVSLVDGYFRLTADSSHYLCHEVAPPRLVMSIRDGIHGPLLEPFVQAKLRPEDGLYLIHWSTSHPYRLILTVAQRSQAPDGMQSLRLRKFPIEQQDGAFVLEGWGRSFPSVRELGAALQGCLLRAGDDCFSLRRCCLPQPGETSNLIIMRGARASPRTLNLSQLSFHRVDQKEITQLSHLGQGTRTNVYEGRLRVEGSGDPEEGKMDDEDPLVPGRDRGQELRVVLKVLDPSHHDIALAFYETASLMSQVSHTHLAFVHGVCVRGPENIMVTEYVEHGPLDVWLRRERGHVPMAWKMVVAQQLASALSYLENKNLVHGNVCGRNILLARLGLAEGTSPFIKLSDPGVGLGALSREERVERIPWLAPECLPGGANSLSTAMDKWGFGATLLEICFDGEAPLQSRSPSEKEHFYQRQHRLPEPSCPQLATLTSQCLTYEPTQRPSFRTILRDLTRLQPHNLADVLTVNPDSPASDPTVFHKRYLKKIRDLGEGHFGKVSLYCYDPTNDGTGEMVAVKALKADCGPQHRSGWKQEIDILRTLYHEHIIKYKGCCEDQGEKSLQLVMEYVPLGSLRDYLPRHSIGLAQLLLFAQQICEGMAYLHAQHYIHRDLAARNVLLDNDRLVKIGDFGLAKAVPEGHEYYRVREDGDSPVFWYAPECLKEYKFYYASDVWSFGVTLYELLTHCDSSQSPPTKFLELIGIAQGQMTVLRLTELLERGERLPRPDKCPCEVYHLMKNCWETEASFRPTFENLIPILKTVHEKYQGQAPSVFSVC", "experiment": "Biochemical Tyk2 kinase assay (LanthaScreen)", "summary_of_the_method": "as §1"}, "JAK2": {"target": "T4, JAK2 (Homo sapiens, UniProt O60674)", "T4 construct": "GST; purchased Life Technologies", "T4 sequence (O60674 whole entry)": "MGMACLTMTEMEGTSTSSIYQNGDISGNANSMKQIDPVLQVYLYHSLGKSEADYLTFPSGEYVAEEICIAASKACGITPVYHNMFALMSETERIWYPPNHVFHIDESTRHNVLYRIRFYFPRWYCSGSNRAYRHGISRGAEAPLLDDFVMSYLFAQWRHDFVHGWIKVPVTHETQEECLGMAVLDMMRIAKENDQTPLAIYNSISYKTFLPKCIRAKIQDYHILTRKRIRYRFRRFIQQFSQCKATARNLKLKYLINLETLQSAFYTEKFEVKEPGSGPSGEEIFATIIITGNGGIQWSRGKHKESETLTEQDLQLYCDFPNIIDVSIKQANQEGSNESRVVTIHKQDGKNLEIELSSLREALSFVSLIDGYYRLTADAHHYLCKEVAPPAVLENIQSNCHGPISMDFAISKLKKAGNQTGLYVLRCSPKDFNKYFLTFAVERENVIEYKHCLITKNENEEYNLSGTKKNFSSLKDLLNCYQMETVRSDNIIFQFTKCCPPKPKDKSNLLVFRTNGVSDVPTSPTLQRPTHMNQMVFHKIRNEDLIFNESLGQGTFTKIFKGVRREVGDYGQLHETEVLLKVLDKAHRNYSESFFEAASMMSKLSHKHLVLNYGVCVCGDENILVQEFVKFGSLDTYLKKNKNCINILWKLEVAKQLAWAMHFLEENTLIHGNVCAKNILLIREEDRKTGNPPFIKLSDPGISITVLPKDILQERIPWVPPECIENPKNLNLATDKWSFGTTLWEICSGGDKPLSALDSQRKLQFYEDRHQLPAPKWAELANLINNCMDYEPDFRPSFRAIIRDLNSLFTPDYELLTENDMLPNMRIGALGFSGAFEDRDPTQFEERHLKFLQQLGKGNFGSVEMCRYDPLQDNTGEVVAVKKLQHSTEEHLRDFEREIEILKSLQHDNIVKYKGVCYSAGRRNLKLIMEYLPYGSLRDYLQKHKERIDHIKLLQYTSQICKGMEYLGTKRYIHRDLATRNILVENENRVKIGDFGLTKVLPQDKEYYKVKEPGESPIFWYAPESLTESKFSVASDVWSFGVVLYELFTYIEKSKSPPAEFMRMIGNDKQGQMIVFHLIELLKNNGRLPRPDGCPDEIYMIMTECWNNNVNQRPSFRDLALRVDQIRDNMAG", "experiment": "Biochemical JAK2 kinase assay (LanthaScreen)", "summary_of_the_method": "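pKi values derive from pIC50 via Cheng-Prusoff, with IC50 from a 4-parameter fit of percent-inhibition TR-FRET data using Tb-anti-pSTAT1 (pTyr701) detection. Compound, GST-JAK2 and GFP-STAT1 substrate were pre-incubated 1 h, then ATP started a 1 h ambient reaction (HEPES pH 7.5, 10 mM MgCl2, 1% DMSO).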"}, "[1]": {"test_system": "IL-2 stimulated pSTAT5 in Tall-1 T cells", "experiment": "Cellular JAK3 potency assay: inhibition of IL-2 stimulated pSTAT5 in Tall-1 T cells", "format": "cell-based, human", "settings": "IL-2 stimulated pSTAT5, Tall-1 T cells", "summary_of_the_method": "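Inhibition of IL-2-induced pSTAT5 was quantified by AlphaLisa in Tall-1 cell lysates. Compound exposure lasted 1 h before 30 min stimulation with 300 ng/ml IL-2 final.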"}}}
{"smiles": "CN(C)C/C=C/C(=O)N1CCC(C)(Nc2cc(-c3ccc(O)c(F)c3)cc3[nH]ncc23)CC1", "note": "[Compound 7-12]", "values": [{"measurement": "JAK 1 (pKi)", "setting": "JAK1", "value": "E (a pKi value of 7 or below (Ki of 100 nM or above))"}, {"measurement": "JAK 3 (pKi)", "setting": "JAK3", "value": "B (a pKi value between 9 and 10 (Ki between 1 nM and 0.1 nM))"}, {"measurement": "JAK3 (pKi)-JAK1 (pKi)", "setting": "JAK3", "value": "A (a value of 3 or above)"}, {"measurement": "Tyk 2 (pKi)", "setting": "Tyk2", "value": "E (a pKi value of 7 or below (Ki of 100 nM or above))"}, {"measurement": "JAK 2 (pKi)", "setting": "JAK2", "value": "D (a pKi value between 7 and 8 (Ki between 100 nM and 10 nM))"}, {"measurement": "Tall-1 (pIC50)", "setting": "[1]", "value": "B (a pIC50 value between 6.7 (included) and 7.5 (IC50 between 200 nM and 32 nM))"}]}
{"smiles": "C=CC(=O)N1CCC(C)(Nc2nc(-c3ccc(O)cc3)cc3[nH]ncc23)CC1", "note": "[Compound 7-13]", "values": [{"measurement": "JAK 1 (pKi)", "setting": "JAK1", "value": "E (a pKi value of 7 or below (Ki of 100 nM or above))"}, {"measurement": "JAK 3 (pKi)", "setting": "JAK3", "value": "A (a pKi value≥10 (Ki≤0.1 nM))"}, {"measurement": "JAK3 (pKi)-JAK1 (pKi)", "setting": "JAK3", "value": "A (a value of 3 or above)"}, {"measurement": "Tyk 2 (pKi)", "setting": "Tyk2", "value": "E (a pKi value of 7 or below (Ki of 100 nM or above))"}, {"measurement": "JAK 2 (pKi)", "setting": "JAK2", "value": "D (a pKi value between 7 and 8 (Ki between 100 nM and 10 nM))"}, {"measurement": "Tall-1 (pIC50)", "setting": "[1]", "value": "A (a pIC50 value≥7.5 (IC50≤32 nM))"}]}
{"smiles": "C=CC(=O)N1CCC(C)(Nc2nc(-c3ccc(O)c(Cl)c3)cc3[nH]ncc23)CC1", "note": "[Compound 7-14]", "values": [{"measurement": "JAK 1 (pKi)", "setting": "JAK1", "value": "E (a pKi value of 7 or below (Ki of 100 nM or above))"}, {"measurement": "JAK 3 (pKi)", "setting": "JAK3", "value": "B (a pKi value between 9 and 10 (Ki between 1 nM and 0.1 nM))"}, {"measurement": "JAK3 (pKi)-JAK1 (pKi)", "setting": "JAK3", "value": "B (a value of 2.3 to 3)"}, {"measurement": "Tyk 2 (pKi)", "setting": "Tyk2", "value": "E (a pKi value of 7 or below (Ki of 100 nM or above))"}, {"measurement": "JAK 2 (pKi)", "setting": "JAK2", "value": "D (a pKi value between 7 and 8 (Ki between 100 nM and 10 nM))"}, {"measurement": "Tall-1 (pIC50)", "setting": "[1]", "value": "A (a pIC50 value≥7.5 (IC50≤32 nM))"}]}
{"smiles": "C=CC(=O)N1CCCC(Oc2cc(-c3ccc(O)cc3)cc3[nH]ncc23)C1", "note": "(stereo not drawn) [Compound 8-1]", "values": [{"measurement": "JAK 1 (pKi)", "setting": "JAK1", "value": "E (a pKi value of 7 or below (Ki of 100 nM or above))"}, {"measurement": "JAK 3 (pKi)", "setting": "JAK3", "value": "B (a pKi value between 9 and 10 (Ki between 1 nM and 0.1 nM))"}, {"measurement": "JAK3 (pKi)-JAK1 (pKi)", "setting": "JAK3", "value": "B (a value of 2.3 to 3)"}, {"measurement": "Tyk 2 (pKi)", "setting": "Tyk2", "value": "E (a pKi value of 7 or below (Ki of 100 nM or above))"}, {"measurement": "JAK 2 (pKi)", "setting": "JAK2", "value": "D (a pKi value between 7 and 8 (Ki between 100 nM and 10 nM))"}, {"measurement": "Tall-1 (pIC50)", "setting": "[1]", "value": "A (a pIC50 value≥7.5 (IC50≤32 nM))"}]}
{"smiles": "CN(C)CC=CC(=O)N1CCCC(Oc2cc(-c3ccc(O)c(Cl)c3)cc3[nH]ncc23)C1", "note": "(stereo not drawn) [Compound 8-2]", "values": [{"measurement": "JAK 1 (pKi)", "setting": "JAK1", "value": "E (a pKi value of 7 or below (Ki of 100 nM or above))"}, {"measurement": "JAK 3 (pKi)", "setting": "JAK3", "value": "B (a pKi value between 9 and 10 (Ki between 1 nM and 0.1 nM))"}, {"measurement": "JAK3 (pKi)-JAK1 (pKi)", "setting": "JAK3", "value": "A (a value of 3 or above)"}, {"measurement": "Tyk 2 (pKi)", "setting": "Tyk2", "value": "E (a pKi value of 7 or below (Ki of 100 nM or above))"}, {"measurement": "JAK 2 (pKi)", "setting": "JAK2", "value": "D (a pKi value between 7 and 8 (Ki between 100 nM and 10 nM))"}, {"measurement": "Tall-1 (pIC50)", "setting": "[1]", "value": "B (a pIC50 value between 6.7 (included) and 7.5 (IC50 between 200 nM and 32 nM))"}]}
{"smiles": "C=CC(=O)N1CCCC(Oc2cc(-c3ccc(O)c(Cl)c3)cc3[nH]ncc23)C1", "note": "(stereo not drawn) [Compound 8-3]", "values": [{"measurement": "JAK 1 (pKi)", "setting": "JAK1", "value": "E (a pKi value of 7 or below (Ki of 100 nM or above))"}, {"measurement": "JAK 3 (pKi)", "setting": "JAK3", "value": "B (a pKi value between 9 and 10 (Ki between 1 nM and 0.1 nM))"}, {"measurement": "JAK3 (pKi)-JAK1 (pKi)", "setting": "JAK3", "value": "A (a value of 3 or above)"}, {"measurement": "Tyk 2 (pKi)", "setting": "Tyk2", "value": "E (a pKi value of 7 or below (Ki of 100 nM or above))"}, {"measurement": "JAK 2 (pKi)", "setting": "JAK2", "value": "D (a pKi value between 7 and 8 (Ki between 100 nM and 10 nM))"}, {"measurement": "Tall-1 (pIC50)", "setting": "[1]", "value": "A (a pIC50 value≥7.5 (IC50≤32 nM))"}]}
{"smiles": "CN(C)CC=CC(=O)N1CCCC(Oc2cc(-c3ccc(O)c(F)c3)cc3[nH]ncc23)C1", "note": "(stereo not drawn) [Compound 8-4]", "values": [{"measurement": "JAK 1 (pKi)", "setting": "JAK1", "value": "E (a pKi value of 7 or below (Ki of 100 nM or above))"}, {"measurement": "JAK 3 (pKi)", "setting": "JAK3", "value": "B (a pKi value between 9 and 10 (Ki between 1 nM and 0.1 nM))"}, {"measurement": "JAK3 (pKi)-JAK1 (pKi)", "setting": "JAK3", "value": "B (a value of 2.3 to 3)"}, {"measurement": "Tyk 2 (pKi)", "setting": "Tyk2", "value": "E (a pKi value of 7 or below (Ki of 100 nM or above))"}, {"measurement": "JAK 2 (pKi)", "setting": "JAK2", "value": "D (a pKi value between 7 and 8 (Ki between 100 nM and 10 nM))"}, {"measurement": "Tall-1 (pIC50)", "setting": "[1]", "value": "B (a pIC50 value between 6.7 (included) and 7.5 (IC50 between 200 nM and 32 nM))"}]}
